Tests used:
Type in all cases: cell-based
[1] = tested on: HT-29 (monolayer culture of a human colon carcinoma); assay: Cytotoxic activity screening, HT-29 cells; conditions: Homo sapiens, HT-29, 72 h, three days of incubation, Crystal Violet, approximate IC50
Protocol: (§1) Cell Cultures. Cells were maintained in logarithmic phase of growth in Eagle's Minimum Essential Medium, with Earle's Balanced Salts, with 2.0 mM L-glutamine, with non-essential amino acids, without sodium bicarbonate (EMEM/neaa); supplemented with 10% Fetal Calf Serum (FCS), 10^−2 M sodium bicarbonate and 0.1 g/l penicillin-G+streptomycin sulfate.
(§2) A simple screening procedure has been carried out to determine and compare the antitumour activity of these compounds, using an adapted form of the method described by Bergeron et al (1984). The tumour cell line employed have been P-388 (suspension culture of a lymphoid neoplasm from DBA/2 mouse), A-549 (monolayer culture of a human lung carcinoma), HT-29 (monolayer culture of a human colon carcinoma) and MEL-28 (monolayer culture of a human melanoma).
(§3) A-549, HT-29 and MEL-28 were seeded into 16 mm wells at 2×10^4 cells per well in 1 ml aliquots of MEM 10FCS containing the indicated concentration of drug. A separate set of cultures without drug was seeded as control growth to ensure that cells remained in exponential phase of growth. All determinations were carried out in duplicate. After three days of incubation at 37° C., 10% CO2 in a 98% humid atmosphere, the wells were stained with 0.1% Crystal Violet. An approximately IC50 was determined by comparing the growth in wells with drug to the growth in wells control.

DU-145 = assay: Cytotoxic activity screening, DU-145 cells; conditions: Homo sapiens, DU-145, DU-145 cells
[2] = tested on: P-388 (suspension culture of a lymphoid neoplasm from DBA/2 mouse); assay: Cytotoxic activity screening, P-388 cells; conditions: Mus musculus, P388, 72 h, three days of incubation, approximate IC50
Protocol: as §1, §2
P-388 cell were seeded into 16 mm wells at 1×10^4 cells per well in 1 ml aliquots of MEM 5FCS containing the indicated concentration of drug. A separate set of cultures without drug was seeded as control growth to ensure that cells remained in exponential phase of growth. All determinations were carried out in duplicate.

CV-1 = assay: Cytotoxic activity screening, CV-1 cells; conditions: Cercopithecidae
[3] = tested on: MEL-28 (monolayer culture of a human melanoma); assay: Cytotoxic activity screening, MEL-28 cells; conditions: SK-MEL-28, 72 h, three days of incubation, Crystal Violet, approximate IC50
Protocol: as §1, §2, §3

[4] = tested on: A-549 (monolayer culture of a human lung carcinoma); assay: Cytotoxic activity screening, A-549 cells; conditions: Homo sapiens, A549, 72 h, three days of incubation, Crystal Violet, approximate IC50
Protocol: as §1, §2, §3

Measured: IC50

COc1c(C)cc2c(c1O)[C@@H]1C3Cc4c(O)c(C)c5c(c4[C@H](CN4C(=O)c6ccccc6C4=O)N3[C@@H](C#N)[C@H](C2)N1C)OCO5 (stereo partly drawn)
0.001 µM: [1] | DU-145 | [2] | CV-1 | [3] | [4]

Source: US7420051B2, “Synthetic process for the manufacture of an ecteinaschidin compound” (Pharma Mar, S.A., priority 2000, dated 2008)
